Consider two substances from patent publication EP2487185A1, “Hexapeptide with improved activity in the repair of cellular DNA of dermal cells” (Clinuvel Pharmaceuticals Limited, priority 2011, dated 2012).

Common to all, as to assay type: cell-based, human
In assay [1] the test system is strains 1505b and 1513c. The assay is described as follows: Cell proliferation as a measure of stability, overall. To be noted: all experiments on both strains 1505b and 1513c. How it is done: (§1) With continued reference to Figs. 7, 8 and 9, to determine the stability of CUV9900 versus that of NDP-MSH and α-MSH, melanocytes were treated with 1 nM of each peptide, namely with CUV9900, NDP-MSH and α-MSH, for a total of 6 days, or with 1 nM peptides that were incubated for 5 hours at 37 °C prior to addition to the cultures, every other day, for a total of 6 days. Tyrosinase activity was measured at the end of treatment. In the experiments, cell number represents the mean percent of control of 3 determinations/ group ±SE, and tyrosinase activity data represent the mean percent of control of 6 determinations ±S.E. It should be noted that for the sake of reproducibility the experiment of strain 1513c of Fig. 9 was performed once more 6 months later than the experiment of Fig. 7.
Peptides were incubated at 37 degrees Celsius for 5 hours and then split into groups. Cell proliferation was a measure of stability, whereby the experiments on strain 1513c were divided in period 1 and 2 under standard conditions.

Assay [2] deals with melanocyte strain 1505b. Description: Tyrosinase activity, dose-response, 6 days treatment. The procedure:
Dose-response experiments were carried out on another adult strain 102b which is shown in Fig. 6 and on the strain 1505b which is a melanocyte strain: melanocytes were treated with 0.001-10 nM CUV9990 or NDP-MSH, or 0.1-10 nM MSH for a total of 6 days, with the culture medium changed and fresh peptide added every other day. Cell numbers as well as tyrosinase activity were then determined. Tyrosinase activity was calculated first at activity/10^6 cells, and then as % of control. Twenty-four hours prior the end of the experiment, melanocytes received ^3H-tyrosinase (0.7 µCi/ml medium). The conditioned medium from each dish was collected to be assayed for tyrosinase activity, and the cell numbers were determined using a Coulter Counter. Triplicate dishes were included in each group, and duplicate samples from each dish were assayed for tyrosinase activity. Each data point is the mean percent of control of 6 determinations/group ±S.E.

The subject of assay [3] is melanocyte strain 1505b. Description: Tyrosinase activity as a measure of stability / residual effect. As to conditions: for Tyrosinase activity, column 1 / Tyrosinase activity, column 2 / Tyrosinase activity, column 3 / Tyrosinase activity, Mean: STRAIN 1505b; for Tyrosinase activity, column 1: Table 6 (Fig. 8), after 3 days of treatment; for Tyrosinase activity, column 1 / Tyrosinase activity, column 2 / Tyrosinase activity, column 3: 1nM; for Tyrosinase activity, column 2 / Tyrosinase activity, column 3 / Tyrosinase activity, Mean: Table 6; for Tyrosinase activity, column 2: column 2, not defined; for Tyrosinase activity, column 3: column 3, apparently 4 days after peptide removal; for Tyrosinase activity, Mean: mean of columns 1-3. The procedure:
To determine the residual effect of CUV9900, as compared to NDP-MSH and α-MSH, on tyrosinase activity, melanocytes were treated with either CUV9900 or NDP-MSH at the concentrations previously described for a total of 3 days. Tyrosinase activity was measured at the end of the 3 days of treatment, and 2 and 4 days after maintenance of the melanocytes in the complete absence of any treatment.
as §1
Melanocytes were treated for 3 days with the designated concentrations of CUV9900, NDP-MSH, or MSH, then maintained in absence of peptides for 4 days. Tyrosinase activity was determined 3 days after treatment.

The test system of assay [4] is melanocyte strain 1513c. The assay is described as above. As to conditions: for Tyrosinase activity, column 3: 4 days after peptide removal. The procedure:
To determine the residual effect of CUV9900, as compared to NDP-MSH and α-MSH, on tyrosinase activity, melanocytes were treated with either CUV9900 or NDP-MSH at the concentrations previously described for a total of 3 days. Tyrosinase activity was measured at the end of the 3 days of treatment, and 2 and 4 days after maintenance of the melanocytes in the complete absence of any treatment. With continued reference to Figs. 7, 8 and 9, to determine the stability of CUV9900 versus that of NDP-MSH and α-MSH, melanocytes were treated with 1 nM of each peptide, namely with CUV9900, NDP-MSH and α-MSH, for a total of 6 days, or with 1 nM peptides that were incubated for 5 hours at 37 °C prior to addition to the cultures, every other day, for a total of 6 days. Tyrosinase activity was measured at the end of treatment. In the experiments, cell number represents the mean percent of control of 3 determinations/ group ±SE, and tyrosinase activity data represent the mean percent of control of 6 determinations ±S.E. It should be noted that for the sake of reproducibility the experiment of strain 1513c of Fig. 9 was performed once more 6 months later than the experiment of Fig. 7. […] Melanocytes were treated for 3 days with the designated concentrations of CUV9900, NDP-MSH, or MSH, then maintained in absence of peptides for 4 days. Tyrosinase activity was determined 3 days after treatment. Comparison of stability of CUV9900, NDP-MSH and MSH was compared in 1513c, as shown in Fig. 7; the strain was treated for 6 days with 1 nM CUV9900, NDP-MSH or MSH with fresh medium and peptide replenished every 2 days. Melanocytes were treated according to the same experiment protocol but each peptide was incubated for 5-7 hours at 37 degrees Celsius. […] The assessment of tyrosinase was statistically different from control, as determined by ANOVA (p=<0.05).

Assay [5] concerns melanocytes strain 1513c. The assay is described as follows: cAMP levels (125I radioimmunoassay), dose-response. To be noted: 45 min, 0.1 mM IBMX; for maximal level of cAMP: at 10 nM. How it is done:
Dose-response experiments were carried out on three melanocytic strains, namely strains 1513c, 1505b and 105c melanocytes were treated with 1 pM-10 nM CUV9900 or NDP-MSH, or with 0.1-10 nM MSH for 45 minutes in the presence of 0.1 mM isobutyl methylxanthine (IBMX). The results obtained from strain 1513c are shown in Fig. 3, the results obtained from strain 1505b are shown in Fig. 5a and the results obtained from strain 105c are shown in Fig. 5b. The strains 1505b and 1513c were obtained from the same human adult while the strain 105c was obtained from another human adult. Cyclic AMP is the second messenger for the melanocortin-1 receptor, and assessment is usually performed indicating cellular activity reflective of melanogenesis. Cyclic AMP levels were determined using ^125I-labeled radioimmunoassay kit (Perkin Elmer, Waltham, MA), in human melanocytes that were treated with 0 (control), 0.1-10.0 nM α-MSH, or 0.001-10 nM NDP-MSH or 0.001-10.0 nM CUV 9900 for 45 min. in the presence of 0.1 mM IBMX, a phosphodiesterase inhibitor to prevent cAMP degradation. Triplicate wells were included in each group, and duplicate samples from each well were assayed for cAMP levels. Each data point is the mean percent of control of 6 determinations/group ±S.E.

In assay [6] the test system is melanocyte strain 1505b. Description: Cell proliferation as a measure of stability. As to conditions: for Cell proliferation, column 2: Table 3, 1nM, column 2, not defined; for Cell proliferation, Mean: Table 3, mean of columns 1-3.
[7] abbreviates: STRAIN 1513c [1], Table 4 (Fig. 7), 1nM, after 3 days of treatment.
[8] abbreviates: STRAIN 1513c [1], Table 4, 1nM, column 2, apparently 2 days after removal of peptides.
The mark [9] stands for this setting: STRAIN 1513c [2], Table 5 (Fig. 9), 1 nM, 6 days, fresh peptide.
Where [10] appears, read: STRAIN 1513c [2], Table 5, 1 nM, 6 days, peptide incubated 5-7 hours at 37 degrees Celsius.
[11] abbreviates: over the 2 experiments in strain 1513c.

Non-standard residues stand in square brackets, D forms with d. Nle = CCCC[C@H](N)C(=O)O

Regarding “Ac-Nle-Glu His-D-Phe-Arg-Trp-NH2 (Ac-[Nle]EH[dF]RW-NH2; SMILES CCCC[C@H](NC(C)=O)C(=O)N[C@@H](CCC(=O)O)C(=O)N[C@@H](Cc1c[nH]cn1)C(=O)N[C@H](Cc1ccccc1)C(=O)N[C@@H](CCCNC(=N)N)C(=O)N[C@@H](Cc1c[nH]c2ccccc12)C(N)=O) [CUV9900, hexapeptide, alpha-MSH analogue]”, the “more cell proliferation and stability than MSH” value in assay [1] stood at 2.9%. Besides, in assay [1], the “more cell proliferation and stability than NDP-MSH” value worked out at 4.0%. In addition, in assay [2], the “effect on tyrosinase activity, comparison with NDP-MSH” value is “equivalent to that of NDP-MSH”. For the same substance, the “minimal effective dose (tyrosinase activity)” value in assay [2] (6 days treatment) came to 1 pM. For the same substance, the results for the “Tyrosinase activity, column 1” value in assay [3], in assay [4] (setting [7]) and in assay [4] (setting [9]) were 259 % of control, 284 % of control and 385.1 % of control, respectively. Moreover, the “Tyrosinase activity, column 2” value in assay [3] is on record as 199 % of control; in assay [4] (setting [8]) it was 203 % of control; in assay [4] (setting [10]), 388.7 % of control. For the same substance, the “Tyrosinase activity, column 3” value in assay [3] was 126 % of control; in assay [4] (STRAIN 1513c [1], Table 4, 1nM), 160 % of control. Besides, the “Tyrosinase activity, Mean” value is listed as 194.7 % of control in assay [3] and 386.9 % of control in assay [4] (STRAIN 1513c [2], Table 5). In addition, the “effect on tyrosinase activity after 3 days of treatment” value in assay [3] (strain 1505b, 0.1 nM CUV9900, 1 nM MSH) is given as 259 % of control. In addition, in assay [3] (strain 1505b, 0.1 nM CUV9900 vs 1 nM MSH), the “residual effects 4 days after peptide removal, comparison with MSH” value is recorded as “equal”. The “superior stability over MSH (tyrosinase activity)” value in assay [4] (setting [11]) turned out to be 55.3%. For the same substance, in assay [4] (setting [11]), the “superior stability over NDP (tyrosinase activity)” value is on record as 15.7%. Besides, in assay [4] (strain 1513c, 1 nM peptide incubated 5-7 hours at 37 degrees Celsius), the “effect of incubation of the peptide on stimulation of tyrosinase activity” value is on record as “no effect on its ability to stimulate tyrosinase activity”. Also, the “cAMP, potency comparison” value in assay [5] (at 0.1 nM) is given as “more potent than NDP-MSH”. Moreover, in assay [5], the “maximal level of cAMP” value is “higher maximal level of cAMP than MSH”. The “Cell proliferation, column 2” value in assay [6] is recorded as 120 % of control. In assay [6], the “Cell proliferation, Mean” value is listed as 115.7 % of control.
With “Ac-Ser-Tyr-Ser-Nle-Glu-His-D-Phe-Arg-Trp-Gly-Lys-Pro-Val-NH2 [NDP-MSH, reference compound]”, the “Tyrosinase activity, column 1” value in assay [3] is recorded as 175 % of control; in assay [4] (setting [7]) it was 302 % of control; in assay [4] (setting [9]), 329.9 % of control. Besides, the “Tyrosinase activity, column 2” value in assay [3] is given as 155 % of control; in assay [4] (setting [8]) it was 203 % of control; in assay [4] (setting [10]), 229.2 % of control. In addition, the “Tyrosinase activity, column 3” value in assay [3] is 115 % of control; in assay [4] (STRAIN 1513c [1], Table 4, 1nM), 164 % of control. In addition, the “Tyrosinase activity, Mean” value in assay [3] is 148.3 % of control; in assay [4] (STRAIN 1513c [2], Table 5), 279.6 % of control. In addition, the “maximal level of cAMP” value in assay [5] is listed as “higher maximal level of cAMP than MSH”. Besides, the “Cell proliferation, column 2” value in assay [6] is recorded as 105 % of control. The “Cell proliferation, Mean” value in assay [6] was 105.0 % of control.
